“And” between values parts separate entries of the source, which are not always exact repeats. Equal entries are not always repeated. Where two headings read alike, the source gives them in different places. One block for each molecule: values may come before it.
What was measured:
SH-SY5Y cells = experiment: Cell viability assay; type: cell-based; conditions: 24 h
[1] = from PAMPA–BBB Pe
in vitro = conditions: PAMPA
BV2 cells = experiment: Cell viability assay, BV2 cells; type: cell-based; conditions: 24 h; for Cytotoxicity on BV2 cells: 2, 5, 10, 20, 40 μmol/L; for Cell viability of BV2 cells at high concentration: 80, 160 μmol/L
[2] = test system: phosphorylation of p70S6K; experiment: Inhibition of p70S6K phosphorylation, α-screen assay in SH-SY5Y cell; type: cell-based; conditions: mean ± SD (n ≥ 3)
autophagy in BV2 cells = experiment: Autophagic flux assay; type: cell-based; conditions: 20 μmol/L, 24 h, compared with the control group
[3] = test system: p70S6K and tau phosphorylation; type: in vivo; conditions: APP/PS1 transgenic mice
Aβ40/42 = Aβ40/42 level in brain of APP/PS1 transgenic mice, ELISA; type: in vivo; conditions: oral, 100 days, compared with TV group
[4] = test system: APP/PS1 transgenic AD model mice; experiment: Morris Water Maze assay in APP/PS1 transgenic mice; type: in vivo; conditions: 100 days, compared with TV group
[5] = test system: APP/PS1 transgenic AD model mice; experiment: Nesting test in APP/PS1 transgenic mice; type: in vivo; conditions: 30 mg/kg orally, 100 days, compared with TV group
Aβ1−40 and Aβ1−42 = experiment: Aβ clearance ELISA assay in BV2 cell; type: cell-based; conditions: 5, 10 and 20 μmol/L, 24 h, then 2 μg/mL soluble Aβ for 3 h
hERG potassium channels = hERG potassium channels (Homo sapiens, UniProt Q12809); experiment: hERG inhibition patch clamp assay
[6] = test system: phosphorylation of AKT, mTOR, p70S6K and ULK1; experiment: Western blot of AKT/mTOR/ULK1 signaling pathway in BV2 cells; type: cell-based; conditions: 20, 10, 5 μmol/L, 24 h
[7] = test system: phosphorylation of tau protein; experiment: Tau phosphorylation Western blot in SH-SY5Y cell; type: cell-based; conditions: 5, 10 and 20 μmol/L, 24 h
LC3 II, Beclin 1 and p62 = experiment: Western blot of autophagy marker proteins in BV2 cells; type: cell-based; conditions: 24 h

hERG potassium channels, sequence (Q12809 whole entry): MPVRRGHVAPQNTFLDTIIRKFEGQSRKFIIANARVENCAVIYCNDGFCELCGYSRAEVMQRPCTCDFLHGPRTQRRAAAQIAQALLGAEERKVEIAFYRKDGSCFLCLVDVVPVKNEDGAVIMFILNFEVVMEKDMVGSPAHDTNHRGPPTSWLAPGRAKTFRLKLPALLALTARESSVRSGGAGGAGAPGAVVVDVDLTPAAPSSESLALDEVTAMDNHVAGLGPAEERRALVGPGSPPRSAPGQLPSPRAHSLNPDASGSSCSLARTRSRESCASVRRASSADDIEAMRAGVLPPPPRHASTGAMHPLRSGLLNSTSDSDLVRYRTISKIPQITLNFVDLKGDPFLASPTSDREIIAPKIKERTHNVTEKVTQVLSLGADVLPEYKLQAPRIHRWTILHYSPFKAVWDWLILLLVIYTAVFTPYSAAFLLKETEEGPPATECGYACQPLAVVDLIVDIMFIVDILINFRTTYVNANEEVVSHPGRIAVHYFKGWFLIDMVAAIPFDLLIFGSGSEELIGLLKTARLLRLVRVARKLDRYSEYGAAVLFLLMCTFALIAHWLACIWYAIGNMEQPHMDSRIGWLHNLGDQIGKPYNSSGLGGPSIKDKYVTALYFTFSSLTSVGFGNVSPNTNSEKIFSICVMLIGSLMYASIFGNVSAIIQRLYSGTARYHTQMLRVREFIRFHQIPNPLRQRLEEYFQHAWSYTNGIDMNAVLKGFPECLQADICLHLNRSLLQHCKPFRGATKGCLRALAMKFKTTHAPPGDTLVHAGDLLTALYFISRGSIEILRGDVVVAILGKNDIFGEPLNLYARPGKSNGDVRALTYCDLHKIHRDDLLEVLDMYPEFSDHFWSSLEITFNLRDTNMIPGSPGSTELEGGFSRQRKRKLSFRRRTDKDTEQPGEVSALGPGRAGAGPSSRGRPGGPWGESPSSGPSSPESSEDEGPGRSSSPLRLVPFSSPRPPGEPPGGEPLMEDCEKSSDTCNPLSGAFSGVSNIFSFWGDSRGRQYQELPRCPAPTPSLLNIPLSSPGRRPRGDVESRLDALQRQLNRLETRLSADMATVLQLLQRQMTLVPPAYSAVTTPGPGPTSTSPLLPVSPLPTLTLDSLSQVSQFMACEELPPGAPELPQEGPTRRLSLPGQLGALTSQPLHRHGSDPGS

Structure (SMILES): O=C(Nc1ncc(N2CCOCC2)s1)c1ccc(Cl)s1 [Compound 36, 5-Chloro-N-(5-morpholinothiazol-2-yl)thiophene-2-carboxamide]
Cytotoxicity on SH-SY5Y cells (SH-SY5Y cells): low cytotoxicity
Numbers of yellow and red mTagRFP-mWasabi-LC3 puncta (autophagy in BV2 cells): increased the numbers of both yellow and red puncta
Prediction of BBB penetration [1]: CNS+ (Compounds with permeabilities Pe > 3.08 × 10^−6 cm/s could cross the BBB by passive diffusion (CNS+))
Papp at 10 h, 100 μg/mL (in vitro): 10.62 ± 0.1 ×10⁻⁶ cm/s
Cytotoxicity on BV2 cells (BV2 cells): no cytotoxicity
Cell viability of BV2 cells at high concentration (BV2 cells): decreased
Phosphorylation of AKT, mTOR, p70S6K (Western blot) [6]: effectively inhibit the phosphorylation of AKT, mTOR, and p70S6K
ULK1 phosphorylation at Ser 757 (Western blot) [6]: no effect on the ULK1 phosphorylation
Protein levels of Beclin 1, LC3 II and p62 (Western blot) (LC3 II, Beclin 1 and p62): upregulate the protein levels of Beclin 1 and LC3 II, and decrease the p62 protein level
Inhibition ratio of p70S6K phosphorylation at 20 μmol/L (%) [2]: 83.32±0.41%

Structure (SMILES): Cc1ccsc1C(=O)Nc1ncc(N2CCOCC2)s1 [Compound 38, 3-Methyl-N-(5-morpholinothiazol-2-yl)thiophene-2-carboxamide]
Prediction of BBB penetration [1]: CNS+ (Compounds with permeabilities Pe > 3.08 × 10^−6 cm/s could cross the BBB by passive diffusion (CNS+))
Papp at 10 h, 100 μg/mL (in vitro): 9.88 ± 0.75 ×10⁻⁶ cm/s
Inhibition ratio of p70S6K phosphorylation at 20 μmol/L (%) [2]: 80.32±0.71%

Structure (SMILES): O=C(CCc1ccccc1)Nc1ncc(N2CCOCC2)s1 [Compound 52, N-(5-Morpholinothiazol-2-yl)-3-phenylpropanamide]
Prediction of BBB penetration [1]: CNS+ (Compounds with permeabilities Pe > 3.08 × 10^−6 cm/s could cross the BBB by passive diffusion (CNS+))
Papp at 10 h, 100 μg/mL (in vitro): 10.5 ± 1.13 ×10⁻⁶ cm/s
Inhibition ratio of p70S6K phosphorylation at 20 μmol/L (%) [2]: 81.60±1.86%

Structure (SMILES): CC(=O)Oc1ccccc1C(=O)Nc1ncc([N+](=O)[O-])s1 [NTZ, nitazoxanide, reference compound]
Papp at 10 h, 100 μg/mL (in vitro): 1.26 ± 0.21 ×10⁻⁶ cm/s
Escape latencies in MWM assay ([4]; 30 mg/kg orally): significantly shortened the escape latencies
Nesting test [5]: obvious improvement in nesting test

Further lines, with some results ahead:

Papp at 10 h, 100 μg/mL (in vitro): 5.76 ± 0.57 ×10⁻⁶ cm/s
Structure (SMILES): CC(=O)Oc1ccccc1C(=O)Nc1ncc(N2CCOCC2)s1 [Compound 12, 2-Acetyloxy-N-(5-morpholinothiazol-2-yl)benzamide]
Concentration at which viability of SH-SY5Y cells decreased (SH-SY5Y cells): 5 µM
Prediction of BBB penetration [1]: CNS+ (Compounds with permeabilities Pe > 3.08 × 10^−6 cm/s could cross the BBB by passive diffusion (CNS+))
Concentration at which viability of BV2 cells began to decrease (BV2 cells): 20 µM
Inhibition ratio of p70S6K phosphorylation at 20 μmol/L (%) [2]: 85.20% and 85.20±1.76%

Papp at 10 h, 100 μg/mL (in vitro): 6.02 ± 0.27 ×10⁻⁶ cm/s
Structure (SMILES): CC(=O)Oc1cccc(C(=O)Nc2ncc(N3CCOCC3)s2)c1 [Compound 22, 3-Acetyloxy-N-(5-morpholinothiazol-2-yl)benzamide]
Cytotoxicity on SH-SY5Y cells (SH-SY5Y cells): low cytotoxicity
Numbers of yellow and red mTagRFP-mWasabi-LC3 puncta (autophagy in BV2 cells): increased the numbers of both yellow and red puncta
p70S6K phosphorylation level in the cortex (Western blot) ([3]; 10 mg/kg): significantly reduce the p70S6K phosphorylation level
p70S6K phosphorylation level in the cortex (Western blot) ([3]; 30 mg/kg): significantly reduce the p70S6K phosphorylation level
Prediction of BBB penetration [1]: CNS+ (Compounds with permeabilities Pe > 3.08 × 10^−6 cm/s could cross the BBB by passive diffusion (CNS+))
Aβ40/42 level in cerebral cortex and hippocampus (ELISA) (Aβ40/42): significantly reduced Aβ40/42 level
Escape latencies in MWM assay ([4]; 10 mg/kg orally): significantly reduced the escape latencies
Crossing times in MWM probe trial ([4]; 30 mg/kg orally): significantly increased the crossing times
Escape latencies in MWM assay ([4]; 30 mg/kg orally): significantly reduced the escape latencies
Cytotoxicity on BV2 cells (BV2 cells): no cytotoxicity
Cell viability of BV2 cells at high concentration (BV2 cells): decreased
Nesting test [5]: obvious improvement in nesting test
Aβ1−40 and Aβ1−42 content in the cell (ELISA) (Aβ1−40 and Aβ1−42): dose-dependently decreased both Aβ1−40 and Aβ1−42 content
IC50 (hERG potassium channels): > 40 µM
Phosphorylation of AKT, mTOR, p70S6K (Western blot) [6]: dose-dependently suppressed the phosphorylation of AKT, mTOR, p70S6K
ULK1 phosphorylation at Ser 757 (Western blot) [6]: decreased ULK1 phosphorylation at Ser 757
Tau phosphorylation at Ser199, 396 and Tyr231 (Western blot) [7]: dose-dependently inhibited tau phosphorylation
Protein levels of Beclin 1, LC3 II and p62 (Western blot) (LC3 II, Beclin 1 and p62): upregulate the protein levels of Beclin 1 and LC3 II, and decrease the p62 protein level
Inhibition ratio of p70S6K phosphorylation at 20 μmol/L (%) [2]: 88.95% and 88.95±0.78%

Papp at 10 h, 100 μg/mL (in vitro): 6.82 ± 0.5 ×10⁻⁶ cm/s
Structure (SMILES): O=C(Nc1ncc(N2CCOCC2)s1)c1ccoc1 [Compound 34, N-(5-Morpholinothiazol-2-yl)furan-3-carboxamide]
Prediction of BBB penetration [1]: CNS+ (Compounds with permeabilities Pe > 3.08 × 10^−6 cm/s could cross the BBB by passive diffusion (CNS+))
Inhibition ratio of p70S6K phosphorylation at 20 μmol/L (%) [2]: 80.23±0.88%

Papp at 10 h, 100 μg/mL (in vitro): 9.24 ± 0.47 ×10⁻⁶ cm/s
Structure (SMILES): O=C(Nc1ncc(N2CCOCC2)s1)c1ccsc1 [Compound 35, N-(5-Morpholinothiazol-2-yl)thiophene-3-carboxamide]
Prediction of BBB penetration [1]: CNS+ (Compounds with permeabilities Pe > 3.08 × 10^−6 cm/s could cross the BBB by passive diffusion (CNS+))
Inhibition ratio of p70S6K phosphorylation at 20 μmol/L (%) [2]: 79.84±1.17%

Papp at 10 h, 100 μg/mL (in vitro): 9.89 ± 0.37 ×10⁻⁶ cm/s
Structure (SMILES): Cc1ccc(C(=O)Nc2ncc(N3CCOCC3)s2)s1 [Compound 37, 5-Methyl-N-(5-morpholinothiazol-2-yl)thiophene-2-carboxamide]
Prediction of BBB penetration [1]: CNS+ (Compounds with permeabilities Pe > 3.08 × 10^−6 cm/s could cross the BBB by passive diffusion (CNS+))
Inhibition ratio of p70S6K phosphorylation at 20 μmol/L (%) [2]: 81.20±1.60%
